Reference: ChEMBL document CHEMBL5465560, “Selectivity Literature for EUbOPEN Chemogenomic Library” (2024)

Experiments:
[1] = biological target: Tyrosine-protein kinase Fyn (Homo sapiens) (UniProt P06241); assay: Selectivity interaction (Millipore kinase profiler) EUB0000124b FYN; details: at 10 µM
[2] = biological target: T1, MAP kinase-activated protein kinase 5 (Homo sapiens) (UniProt Q8IW41); assay: Selectivity interaction (KinomeScan (DiscoverX)) EUB0000666a MAPKAPK5; details: at 10 µM
T1 sequence (whole entry): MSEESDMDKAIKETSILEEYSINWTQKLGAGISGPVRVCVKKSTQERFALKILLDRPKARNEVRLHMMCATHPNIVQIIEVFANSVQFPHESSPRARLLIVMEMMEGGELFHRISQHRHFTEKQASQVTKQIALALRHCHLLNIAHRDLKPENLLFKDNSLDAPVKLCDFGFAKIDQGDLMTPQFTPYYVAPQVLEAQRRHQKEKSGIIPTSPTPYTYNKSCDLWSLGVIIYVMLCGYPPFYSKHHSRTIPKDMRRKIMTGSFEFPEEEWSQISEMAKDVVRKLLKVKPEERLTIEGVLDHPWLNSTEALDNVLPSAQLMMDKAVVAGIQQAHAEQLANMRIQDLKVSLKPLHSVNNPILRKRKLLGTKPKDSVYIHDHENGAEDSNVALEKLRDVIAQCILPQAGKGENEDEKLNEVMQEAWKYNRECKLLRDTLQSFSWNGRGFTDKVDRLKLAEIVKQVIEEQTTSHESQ

[3] = biological target: Tyrosine-protein kinase Fer (Homo sapiens) (UniProt P16591); assay: Selectivity interaction (KinaseProfiler screening (Millipore)) EUB0000601a FER; details: at 3 µM
[4] = biological target: Dual specificity protein kinase CLK4 (Homo sapiens, UniProt Q9HAZ1); assay: Selectivity interaction (KinomeScan (DiscoverX)) EUB0000229b CLK4; details: at 10 µM
[5] = biological target: Ribosomal protein S6 kinase alpha-3 (Homo sapiens, UniProt P51812); assay: Selectivity interaction (KinomeScan (DiscoverX)) EUB0001079a RPS6KA3; details: at 1 µM
[6] = biological target: MAP/microtubule affinity-regulating kinase 3 (Homo sapiens) (UniProt P27448); assay: Selectivity interaction (ActivX KiNativ screen (kinase selectivity in THP-1 cell lysates)) EUB0000639a MARK3; type: subcellular; details: lysate
Chain of MAP/microtubule affinity-regulating kinase 3 (Homo sapiens) (P27448 whole entry, looked up): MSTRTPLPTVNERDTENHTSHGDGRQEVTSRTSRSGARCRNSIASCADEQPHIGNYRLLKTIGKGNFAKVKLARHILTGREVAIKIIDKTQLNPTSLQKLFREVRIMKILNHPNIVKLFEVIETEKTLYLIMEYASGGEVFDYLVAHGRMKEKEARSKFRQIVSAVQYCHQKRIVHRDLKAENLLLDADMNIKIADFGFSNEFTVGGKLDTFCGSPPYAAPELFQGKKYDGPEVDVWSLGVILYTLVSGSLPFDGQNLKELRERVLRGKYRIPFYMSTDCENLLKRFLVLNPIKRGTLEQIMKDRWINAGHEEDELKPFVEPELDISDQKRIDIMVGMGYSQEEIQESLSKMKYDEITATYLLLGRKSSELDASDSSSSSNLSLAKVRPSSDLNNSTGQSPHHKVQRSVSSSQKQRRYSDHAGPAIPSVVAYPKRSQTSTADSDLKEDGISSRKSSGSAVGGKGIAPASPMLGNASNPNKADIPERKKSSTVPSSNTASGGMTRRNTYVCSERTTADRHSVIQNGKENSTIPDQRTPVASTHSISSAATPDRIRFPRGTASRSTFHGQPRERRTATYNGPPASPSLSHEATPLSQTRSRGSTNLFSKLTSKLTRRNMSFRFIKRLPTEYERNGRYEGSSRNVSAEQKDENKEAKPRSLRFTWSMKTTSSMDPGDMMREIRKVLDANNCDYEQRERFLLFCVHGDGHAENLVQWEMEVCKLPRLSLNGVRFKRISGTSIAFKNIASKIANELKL

[7] = biological target: Serine/threonine-protein kinase 38 (Homo sapiens) (UniProt Q15208); assay: Selectivity interaction (ActivX KiNativ screen (kinase selectivity in THP-1 cell lysates)) EUB0000639a STK38; type: subcellular; details: lysate, at 0.04 µM
Chain of Serine/threonine-protein kinase 38 (Homo sapiens) (Q15208 2-465 limits assumed): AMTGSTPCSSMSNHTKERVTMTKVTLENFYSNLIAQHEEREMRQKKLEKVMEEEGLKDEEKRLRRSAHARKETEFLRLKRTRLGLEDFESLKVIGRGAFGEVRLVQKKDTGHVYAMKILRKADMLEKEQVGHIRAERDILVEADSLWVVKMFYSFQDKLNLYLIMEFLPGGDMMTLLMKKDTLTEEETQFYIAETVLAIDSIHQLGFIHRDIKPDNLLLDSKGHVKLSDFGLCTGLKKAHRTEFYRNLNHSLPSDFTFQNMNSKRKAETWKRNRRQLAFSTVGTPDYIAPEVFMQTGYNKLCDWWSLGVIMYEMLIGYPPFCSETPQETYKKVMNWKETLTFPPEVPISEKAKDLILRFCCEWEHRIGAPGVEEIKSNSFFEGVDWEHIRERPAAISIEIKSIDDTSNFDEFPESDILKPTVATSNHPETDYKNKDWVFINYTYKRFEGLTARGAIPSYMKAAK

[8] = biological target: Fibroblast growth factor receptor 2 (Homo sapiens) (UniProt P21802); assay: Selectivity interaction (Kinase panel (Invitrogen)) EUB0000639a FGFR2; details: at 200 nM
Chain of Fibroblast growth factor receptor 2 (Homo sapiens) (P21802 22-821 limits assumed): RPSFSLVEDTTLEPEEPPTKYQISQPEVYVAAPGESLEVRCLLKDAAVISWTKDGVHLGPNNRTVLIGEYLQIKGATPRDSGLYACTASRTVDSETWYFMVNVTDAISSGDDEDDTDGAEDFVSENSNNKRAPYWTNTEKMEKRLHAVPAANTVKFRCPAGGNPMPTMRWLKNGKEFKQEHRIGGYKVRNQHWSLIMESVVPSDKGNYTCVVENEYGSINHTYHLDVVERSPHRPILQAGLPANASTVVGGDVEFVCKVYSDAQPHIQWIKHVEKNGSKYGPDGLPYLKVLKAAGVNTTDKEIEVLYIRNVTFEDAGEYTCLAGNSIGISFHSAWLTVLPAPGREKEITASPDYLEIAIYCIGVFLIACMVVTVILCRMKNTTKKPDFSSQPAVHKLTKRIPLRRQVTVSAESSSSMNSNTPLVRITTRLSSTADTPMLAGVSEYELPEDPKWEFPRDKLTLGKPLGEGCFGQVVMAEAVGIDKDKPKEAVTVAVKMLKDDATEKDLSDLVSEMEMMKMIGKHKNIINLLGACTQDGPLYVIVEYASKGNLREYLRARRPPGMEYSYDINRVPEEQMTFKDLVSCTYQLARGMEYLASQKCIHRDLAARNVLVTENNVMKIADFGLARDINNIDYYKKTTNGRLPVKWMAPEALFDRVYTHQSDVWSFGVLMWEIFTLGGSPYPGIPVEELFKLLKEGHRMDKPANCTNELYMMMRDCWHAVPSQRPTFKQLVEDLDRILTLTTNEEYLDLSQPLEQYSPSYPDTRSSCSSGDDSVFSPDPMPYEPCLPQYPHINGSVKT

[9] = biological target: Ribosomal protein S6 kinase alpha-6 (Homo sapiens, UniProt Q9UK32); assay: Selectivity interaction (KinomeScan (DiscoverX)) EUB0000618a RPS6KA6; details: at 10 µM
Chain of Ribosomal protein S6 kinase alpha-6 (Q9UK32 whole entry): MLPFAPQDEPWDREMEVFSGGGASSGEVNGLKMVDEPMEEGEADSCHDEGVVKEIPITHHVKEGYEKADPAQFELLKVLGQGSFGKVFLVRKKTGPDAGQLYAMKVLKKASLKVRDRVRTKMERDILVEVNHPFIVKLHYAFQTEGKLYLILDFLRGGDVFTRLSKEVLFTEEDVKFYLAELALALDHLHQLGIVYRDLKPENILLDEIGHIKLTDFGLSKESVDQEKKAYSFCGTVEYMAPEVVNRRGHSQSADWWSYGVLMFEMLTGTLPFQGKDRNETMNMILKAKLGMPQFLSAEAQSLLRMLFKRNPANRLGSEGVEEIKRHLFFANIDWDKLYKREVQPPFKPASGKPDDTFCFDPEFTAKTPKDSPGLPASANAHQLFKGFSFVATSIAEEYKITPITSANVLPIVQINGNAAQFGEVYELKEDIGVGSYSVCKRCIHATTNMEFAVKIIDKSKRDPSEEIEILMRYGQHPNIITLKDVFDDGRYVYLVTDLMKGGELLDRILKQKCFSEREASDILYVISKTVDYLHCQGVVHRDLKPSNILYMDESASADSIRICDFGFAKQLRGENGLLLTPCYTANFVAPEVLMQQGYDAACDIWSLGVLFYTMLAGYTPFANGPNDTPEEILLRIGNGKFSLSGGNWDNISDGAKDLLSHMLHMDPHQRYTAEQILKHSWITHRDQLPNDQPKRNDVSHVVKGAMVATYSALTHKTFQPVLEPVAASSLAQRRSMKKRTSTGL

[10] = biological target: Cyclin-dependent kinase 17 (Homo sapiens) (UniProt Q00537); details: at 10 µM
Chain of Cyclin-dependent kinase 17 (Homo sapiens) (Q00537 whole entry, looked up): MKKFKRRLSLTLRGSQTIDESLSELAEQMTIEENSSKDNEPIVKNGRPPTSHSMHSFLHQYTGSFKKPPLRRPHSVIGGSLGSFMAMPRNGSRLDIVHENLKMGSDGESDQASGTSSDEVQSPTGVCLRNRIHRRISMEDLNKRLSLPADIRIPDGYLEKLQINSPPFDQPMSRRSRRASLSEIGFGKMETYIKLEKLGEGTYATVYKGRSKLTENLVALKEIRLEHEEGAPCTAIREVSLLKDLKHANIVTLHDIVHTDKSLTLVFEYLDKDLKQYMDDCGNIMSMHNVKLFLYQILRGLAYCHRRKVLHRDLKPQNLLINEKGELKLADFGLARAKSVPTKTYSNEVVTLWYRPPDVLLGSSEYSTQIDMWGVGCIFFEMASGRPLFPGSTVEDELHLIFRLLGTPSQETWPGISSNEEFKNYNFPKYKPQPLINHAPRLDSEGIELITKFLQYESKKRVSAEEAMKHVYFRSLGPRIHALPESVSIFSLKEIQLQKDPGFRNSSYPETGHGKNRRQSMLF

[11] = biological target: T2, Homeodomain-interacting protein kinase 4 (Homo sapiens) (UniProt Q8NE63); assay: Selectivity interaction (KinomeScan (DiscoverX)) EUB0001619a HIPK4; details: at 1 µM
T2 sequence (whole entry): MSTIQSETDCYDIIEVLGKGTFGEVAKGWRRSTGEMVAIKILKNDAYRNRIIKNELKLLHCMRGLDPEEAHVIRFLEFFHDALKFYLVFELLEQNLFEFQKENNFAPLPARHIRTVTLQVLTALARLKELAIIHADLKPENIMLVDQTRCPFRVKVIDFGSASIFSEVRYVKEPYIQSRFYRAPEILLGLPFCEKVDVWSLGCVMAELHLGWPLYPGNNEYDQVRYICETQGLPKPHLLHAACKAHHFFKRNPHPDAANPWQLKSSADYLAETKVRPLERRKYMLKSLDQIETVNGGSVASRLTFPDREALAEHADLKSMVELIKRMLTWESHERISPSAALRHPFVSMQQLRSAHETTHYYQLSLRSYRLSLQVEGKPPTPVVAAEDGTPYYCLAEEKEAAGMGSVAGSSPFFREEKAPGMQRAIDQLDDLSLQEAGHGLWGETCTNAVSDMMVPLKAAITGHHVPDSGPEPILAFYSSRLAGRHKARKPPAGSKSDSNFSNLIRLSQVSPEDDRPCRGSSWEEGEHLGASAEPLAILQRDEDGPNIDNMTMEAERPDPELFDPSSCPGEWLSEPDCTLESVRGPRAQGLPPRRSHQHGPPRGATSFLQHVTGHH

[12] = biological target: T3, Tyrosine-protein kinase ITK/TSK (Homo sapiens) (UniProt Q08881); assay: Selectivity interaction (Upstate Kinase Profiler service (Millipore)) EUB0000056c ITK; details: at 1 µM
T3 sequence (whole entry): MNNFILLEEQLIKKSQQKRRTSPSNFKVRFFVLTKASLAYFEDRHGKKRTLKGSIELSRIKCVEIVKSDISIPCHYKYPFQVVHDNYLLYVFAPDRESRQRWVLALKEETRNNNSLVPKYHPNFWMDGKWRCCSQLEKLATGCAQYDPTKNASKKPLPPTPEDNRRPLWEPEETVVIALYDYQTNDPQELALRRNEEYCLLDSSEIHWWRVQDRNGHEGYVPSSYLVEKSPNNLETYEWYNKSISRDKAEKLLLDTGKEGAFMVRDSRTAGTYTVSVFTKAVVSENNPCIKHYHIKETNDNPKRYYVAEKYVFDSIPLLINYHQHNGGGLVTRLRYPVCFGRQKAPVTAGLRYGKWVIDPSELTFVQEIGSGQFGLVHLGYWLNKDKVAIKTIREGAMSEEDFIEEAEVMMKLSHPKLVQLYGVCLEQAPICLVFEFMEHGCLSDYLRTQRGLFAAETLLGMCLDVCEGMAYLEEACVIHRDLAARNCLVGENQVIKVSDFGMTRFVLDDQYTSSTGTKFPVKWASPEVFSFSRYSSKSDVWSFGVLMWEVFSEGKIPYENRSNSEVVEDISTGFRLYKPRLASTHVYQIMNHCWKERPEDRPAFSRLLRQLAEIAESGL

[13] = biological target: 5-hydroxytryptamine receptor 2A (Homo sapiens, UniProt P28223); assay: Selectivity interaction (Panel of kinases, GPCRs, ion channels and transporters (enzymatic assay)) EUB0000266bCl HTR2A
Chain of 5-hydroxytryptamine receptor 2A (P28223 whole entry): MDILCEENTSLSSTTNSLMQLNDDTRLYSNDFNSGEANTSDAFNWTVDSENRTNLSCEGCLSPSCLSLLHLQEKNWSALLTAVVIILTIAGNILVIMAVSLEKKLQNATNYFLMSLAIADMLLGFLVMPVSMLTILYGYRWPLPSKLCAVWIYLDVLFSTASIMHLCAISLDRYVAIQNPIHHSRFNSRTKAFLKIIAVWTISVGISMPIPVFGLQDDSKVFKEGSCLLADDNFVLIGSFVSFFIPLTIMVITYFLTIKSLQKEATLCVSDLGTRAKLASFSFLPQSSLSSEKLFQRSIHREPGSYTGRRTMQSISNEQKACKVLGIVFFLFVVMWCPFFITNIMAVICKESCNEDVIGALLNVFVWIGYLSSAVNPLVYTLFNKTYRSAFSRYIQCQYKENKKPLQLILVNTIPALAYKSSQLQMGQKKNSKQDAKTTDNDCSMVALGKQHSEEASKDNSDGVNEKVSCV

[14] = biological target: Calcium/calmodulin-dependent protein kinase kinase 2 (Homo sapiens) (UniProt Q96RR4); assay: Selectivity interaction (LanthaScreen Eu Kinase Binding Assay) EUB0001632a CAMKK2; details: at 10 µM
Chain of Calcium/calmodulin-dependent protein kinase kinase 2 (Homo sapiens) (Q96RR4 2-588 limits assumed): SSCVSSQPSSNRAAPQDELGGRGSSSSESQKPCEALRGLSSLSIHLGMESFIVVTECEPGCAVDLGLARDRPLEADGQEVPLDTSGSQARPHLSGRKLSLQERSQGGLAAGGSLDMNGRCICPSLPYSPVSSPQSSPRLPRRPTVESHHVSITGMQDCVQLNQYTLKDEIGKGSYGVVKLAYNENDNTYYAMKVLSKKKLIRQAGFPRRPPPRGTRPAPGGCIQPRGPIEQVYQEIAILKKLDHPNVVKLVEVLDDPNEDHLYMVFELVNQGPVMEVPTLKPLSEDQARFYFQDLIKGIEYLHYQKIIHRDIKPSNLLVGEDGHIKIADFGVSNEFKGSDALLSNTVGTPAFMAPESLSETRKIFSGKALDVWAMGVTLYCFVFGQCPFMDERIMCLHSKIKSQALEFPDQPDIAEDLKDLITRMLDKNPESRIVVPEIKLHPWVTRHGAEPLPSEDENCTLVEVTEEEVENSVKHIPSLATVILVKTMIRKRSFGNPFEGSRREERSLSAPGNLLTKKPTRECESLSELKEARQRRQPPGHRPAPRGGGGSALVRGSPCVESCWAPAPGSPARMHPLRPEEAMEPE

Chain of Tyrosine-protein kinase Fyn (Homo sapiens) (P06241 2-537 limits assumed): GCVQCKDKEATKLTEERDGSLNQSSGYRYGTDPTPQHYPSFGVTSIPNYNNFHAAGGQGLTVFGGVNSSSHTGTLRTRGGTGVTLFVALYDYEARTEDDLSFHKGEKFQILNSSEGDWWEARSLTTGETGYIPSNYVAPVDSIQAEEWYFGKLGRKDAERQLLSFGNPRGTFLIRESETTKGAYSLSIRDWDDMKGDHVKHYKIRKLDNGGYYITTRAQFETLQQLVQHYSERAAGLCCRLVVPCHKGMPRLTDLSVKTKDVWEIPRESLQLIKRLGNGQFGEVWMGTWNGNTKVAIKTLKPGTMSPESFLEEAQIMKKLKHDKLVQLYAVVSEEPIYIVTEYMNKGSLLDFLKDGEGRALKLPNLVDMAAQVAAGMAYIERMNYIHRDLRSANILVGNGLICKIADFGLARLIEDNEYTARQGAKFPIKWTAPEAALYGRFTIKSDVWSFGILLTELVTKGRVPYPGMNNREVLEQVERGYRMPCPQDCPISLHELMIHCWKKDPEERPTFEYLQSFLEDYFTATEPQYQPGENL

## CC(=O)Nc1cccc(-n2c(=O)n(C3CC3)c(=O)c3c(Nc4ccc(I)cc4F)n(C)c(=O)c(C)c32)c1
[1]
  % of control: 101%

## O=C(NOC[C@H](O)CO)c1ccc(F)c(F)c1Nc1ccc(I)cc1F
[2]
  % of control: 100%

## CCc1cc(Nc2nccc(-c3c(-c4ccc(OC)c(C(=O)Nc5c(F)cccc5F)c4)nc4ccccn34)n2)c(OC)cc1N1CCC(N2CCN(S(C)(=O)=O)CC2)CC1
[3]
  % of inhibition: 93%

## COc1cc(N(C)c2ccnc3ccc(C(F)(F)F)cc23)cc(OC)c1OC
[4]
  % binding: 88%

## Nc1cnc(N2CCc3cc(S(=O)(=O)Nc4c(F)cc(Cl)cc4F)cc(N4CCCC4=O)c32)nc1 [TP-020n]
[5]
  % of control: 84%

## CC[C@@H]1[C@H](F)C(=O)N[C@@H]1COc1nccc2cc(C(N)=O)c(OC)cc12 [ZIMLOVISERTIB]
[6]; at 0.01 µM
  % of inhibition: 10%
[6]; at 0.04 µM
  % of inhibition: 17.3%
[6]; at 0.2 µM
  % of inhibition: 11.9%
[6]; at 1 µM
  % of inhibition: 26.3%
[6]; at 5 µM
  % of inhibition: 51.4%
[7]
  % of inhibition: -3.9%
[8]
  % of inhibition: -3.82%

## O[C@H]1CC[C@H](Nc2ncc3nc(Nc4c(F)cc(F)cc4F)n([C@H]4CCOC4)c3n2)CC1
[9]
  % of control: 13%

## Cc1cc([C@@H](C)Nc2ccccc2C(=O)O)c2nc(N3CCOCC3)cc(=O)n2c1 [AZD-6482]
[10]
  % of control: 100%

## N#Cc1cccc(-c2c[nH]c3ncnc(N4CCOCC4)c23)c1
[11]
  % of control: 100%

## Cc1ccc(-c2ccc3c(ccc4sc5c(c43)NC[C@@H](C)NC5=O)n2)cn1
[12]
  % of inhibition: -1%

## CCn1c(-c2nc3cc(C(=O)N4CCCC(N)C4)ccc3n2C)cc2ccccc21 (stereo not drawn)
[13]
  pXC50: 5.3 M

## Cn1cc(-n2cnc3c(NCc4nc5cc(Cl)c(Cl)cc5[nH]4)nc(N4CCOCC4)nc32)cn1
[14]
  % of inhibition: -0.213%
